Laboratory results published in patent US11707440B2 (priority 2017, dated 2023).

Legend:
[1] = tested on: subjects with MDD at imminent risk for suicide; type: in vivo, human; conditions: esketamine 84 mg; safety analysis set
Protocol: Of the 68 subjects in the all randomized analysis set, 19 (27.9%) subjects discontinued from the double-blind phase. More subjects in the esketamine 84 mg group discontinued due to adverse events (5 subjects in the esketamine 84 mg group versus 1 subject in the placebo group) whereas more subjects in the placebo group discontinued due to lack of efficacy (4 subjects in the placebo group versus 1 subject in the esketamine 84 mg group).
More subjects in the esketamine 84 mg group than in the placebo group had all 8 dosing sessions (74.3% vs. 64.5%). Five subjects reduced their dose of esketamine from 84 mg to 56 mg. Of these, 3 reduced their dose due to an adverse event and 2 had their dose reduced in error and were considered major protocol deviations.

[2] = tested on: elderly subjects with TRD; type: in vivo, human; conditions: each dosing day
Source text: The Modified Observer's Assessment of Alertness/Sedation (MOAA/S) was used to measure treatment-emergent sedation with correlation to levels of sedation defined by the American Society of Anesthesiologists (ASA) continuum. The MOAA/S scores range from 0 (No response to painful stimulus; corresponds to ASA continuum for general anesthesia) to 5 (Readily responds to name spoken in normal tone [awake]; corresponds to ASA continuum for minimal sedation). The proportion of subjects with sedation was <4% for the esketamine group for each dosing day.

[3] = Source text: This example provides an LC-MS/MS method for the determination of ketamine and norketamine in sodium heparin human plasma using ketamine-d4 and norketamine-d4 as the respective internal standards (IS).
[4] = Pharmacokinetics of esketamine nasal spray, 14 Phase 1 studies (Example 10); conditions: human, plasma, inhaled or intranasal
Protocol: The data herein was assembled from 14 Phase 1 studies; each Phase 1 study was performed similarly to the study outlined in Example 9 in which the PK of esketamine was assessed.

CN[C@]1(c2ccccc2Cl)CCCCC1=O [esketamine, (S)-2-(2-chlorophenyl)-2-(methylamino)cyclohexanone]
Dose decreased during double-blind: No [1]: 29 (82.9%)
Dose decreased during double-blind: Yes [1]: 6 (17.1%)
Proportion of subjects with sedation (post dose MOAA/S score of ≤3) [2]: < 4%
QC sample freeze/thaw stability ([3]; freeze (−20° C.)/thaw (room temperature)): 3 freeze (−20° C.)/thaw (room temperature) cycles
QC sample bench-top stability ([3]; human plasma, room temperature): 18 hours at room temperature
AUC ([4]; 28 mg): 128 to 183 ng·h/mL
AUC ([4]; 56 mg): 216 to 317 ng·h/mL
AUC ([4]; 84 mg): 310 to 489 ng·h/mL
